Measured values published in patent US10632127B2, “Targeted notch pathway inhibitors” (Hoffmann-La Roche Inc., priority 2015, dated 2020).
One block for each compound: values may come before it.

Tested on: EC219 cells
Assay: Extracellular release of the γ-secretase inhibitor from prodrugs by EC219 endothelial cells
Assay type: in vitro ADME, rat
Conditions: HEK293, 215/F2, HK2 and EC219 cells, 20 μM in PBS, 19 h
Description: FIG. 2A. Extracellular release of amine-SecrI (11a) metabolites for α-Glu- and γ-Glu-secretase inhibitor prodrugs. The prodrugs were added to the cells for 19 h, then the supernatants were harvested and analyzed for SecrI (8), amine-SecrI (11a), the prodrugs 13a, 13b, 15a, 15b and (for 13a, 15a) also the correponding deacetylated metabolites.
Cpd added: 20 μM in PBS, 19 h incubation. SecrI (8) is stable when added to cells for 19 h; free SecrI (8) was never detected from any prodrug.
The preparation and characterization of rat brain-derived EC219 endothelial cells have been described in Juillerat-Jeanneret, L. et al. In Vitro Cell. Dev. Biol. 1992, 28A, 537-543. These cells express high levels of APA and γ-GT activities and can be used for determining kinetics in living cells, and were chosen as APA- and γ-GT-positive representative cell models. EC219 cells were grown in DMEM medium containing 1 g/l glucose, 10% heat-inactivated fetal calf serum (FCS, EuroClone, UK) supplemented with 100 U/mL penicillin and 100 μg/mL streptomycin (P/S) on uncoated cell culture plastic ware. The HEK293 and HK2 human kidney cells are available from the ATCC (American Tissue Culture Collection, Manassas, Va., USA). HEK293 cells were grown on uncoated cell culture plastic ware in Iscove modified Dulbecco medium (IMDM, Life Technologies) containing 10% FCS and P/S. HK2 cells were grown on uncoated cell culture plastic ware in DMEM/F-12 GlutaMAX medium (Gibco) containing 5% FCS, P/S, 1% ITS (1.0 mg/ml bovine insulin, 0.55 mg/ml human transferrin and 0.5 μg/ml sodium selenite, Sigma-Aldrich) and 5 ng/ml hydrocortisone. […] Then 75 μl of supernatant from each well was removed and the luciferase activity was determined by adding 25 μl of Steady-Glo luciferase assay reagent (Promega).
A first screen of the different γ-secretase prodrugs was performed in vitro to determine the cleavage rate of each compound and ex-vivo in mouse kidney tissues. Extracellular release of the γ-secretase inhibitor from prodrugs by human kidney cells (HEK293, HEK293-derived Notch-reporter 215/F2 cells28,39 and HK2 cells) as well as the rat brain-derived EC219 endothelial cells which express very high levels of APA and γ-GT activities were evaluated for liberating active inhibitors SecrI (8) or amine-SecrI (11a) (FIG. 2A).
All samples were analyzed using protein precipitation followed by LC-MS/MS analysis. […] One μL of the supernatant was analyzed by LC/MS. […]

SMILES: C[C@H]1Oc2ccc(F)cc2N(CCO)C(=O)[C@H]1NC(=O)[C@@](C)(O)C(=O)NCC(F)(F)C(F)(F)F [Compound 8, N-[(6R,7S)-2-Fluoro-9-(2-hydroxy-ethyl)-6-methyl-8-oxo-6,7,8,9-tetrahydro-5-oxa-9-aza-benzocyclohepten-7-yl]-2-(S)-hydroxy-2-methyl-N′-(2,2,3,3,3-pentafluoro-propyl)-malonamide]
stability when added to cells: stable

substrate for APA: not a substrate for this enzyme
SMILES: CC(=O)N[C@@H](CCC(=O)O)C(=O)NCCNC(=O)OCCN1C(=O)[C@@H](NC(=O)[C@@](C)(O)C(=O)NCC(F)(F)C(F)(F)F)[C@@H](C)Oc2ccc(F)cc21 [Compound 15a, (S)-4-acetamido-5-(2-((2-((2R,3S)-7-fluoro-3-((S)-2-hydroxy-2-methyl-3-oxo-3-(2,2,3,3,3-pentafluoropropylamino)propanamido)-2-methyl-4-oxo-3,4-dihydrobenzo[b][1,4]oxazepin-5(2H)-yl)ethoxy)carbonylamino)ethylamino)-5-oxopentanoic acid]

SMILES: CC(=O)N[C@@H](CCC(=O)NCCNC(=O)OCCN1C(=O)[C@@H](NC(=O)[C@@](C)(O)C(=O)NCC(F)(F)C(F)(F)F)[C@@H](C)Oc2ccc(F)cc21)C(=O)O [Compound 13a, (S)-2-acetamido-5-(2-((2-((2R,3S)-7-fluoro-3-((S)-2-hydroxy-2-methyl-3-oxo-3-(2,2,3,3,3-pentafluoropropylamino)propanamido)-2-methyl-4-oxo-3,4-dihydrobenzo[b][1,4]oxazepin-5(2H)-yl)ethoxy)carbonylamino)ethylamino)-5-oxopentanoic acid]
hydrolysis by γ-GT: not hydrolyzed by γ-GT
